Measurements reported in publication PMC12707362, “Targeting Aurora Kinases as Essential Cell‐Cycle Regulators to Deliver Multi‐Stage Antimalarials Against Plasmodium Falciparum” (Angewandte Chemie (International Ed. in English), 2025).
Read-outs that look alike come from different tables or passages of the source.

Assays:
[1] = tested on: multidrug-resistant PfK1 ABS parasites; assay: SYBR Green I proliferation assay, PfK1 asexual blood stages; type: cell-based; details: Plasmodium falciparum
Procedure: (B) Antiplasmodial activity of nine anticancer aurora kinase inhibitors (selected based on their PfNF54 ABS activity) against P. falciparum multidrug-resistant ABS parasites (PfDd2 and PfK1). (C) Kinobead competitive inhibition data.
All inhibitors were dissolved in dimethyl sulfoxide (DMSO). Antiplasmodium activity of selected anti-cancer inhibitors was determined on P. falciparum NF54 and Dd2 strains, measuring SYBR Green I fluorescence (485 nm excitation, 538 nm emission) as an indicator of proliferation^[4]. Ring-stage ABS parasites (1% parasitemia, 1% hematocrit) were treated with compounds for 96 h at 37 °C with chloroquine disulphate (0.5 μM) as positive drug control. The activity of the inhibitors was tested against immature (>95% stage II/III) and late-stage (>90% stage IV/V) gametocytes using a luciferase reporter assay on 3D7elo1-pfs16-CBG99 ^[1]. […] Luciferase activity was determined using a non-lysing D-luciferin substrate (1 mM in 0.1 M citrate buffer, pH 5.5, 100 μL) and bioluminescence was detected with a GloMax® - Multi Detection System with Instinct® software.

recombinant PfPKG = target: T1, recombinant PfPKG (Plasmodium falciparum, UniProt Q8I719); assay: ADP-Glo kinase assay, PfPKG; type: biochemical
T1 construct: Full-length PfPKG (PF3D7_1436600); His tag (N); made in house; host or cells: E. coli (first-named host, read as 'respectively')
T1 sequence (Q8I719 whole entry): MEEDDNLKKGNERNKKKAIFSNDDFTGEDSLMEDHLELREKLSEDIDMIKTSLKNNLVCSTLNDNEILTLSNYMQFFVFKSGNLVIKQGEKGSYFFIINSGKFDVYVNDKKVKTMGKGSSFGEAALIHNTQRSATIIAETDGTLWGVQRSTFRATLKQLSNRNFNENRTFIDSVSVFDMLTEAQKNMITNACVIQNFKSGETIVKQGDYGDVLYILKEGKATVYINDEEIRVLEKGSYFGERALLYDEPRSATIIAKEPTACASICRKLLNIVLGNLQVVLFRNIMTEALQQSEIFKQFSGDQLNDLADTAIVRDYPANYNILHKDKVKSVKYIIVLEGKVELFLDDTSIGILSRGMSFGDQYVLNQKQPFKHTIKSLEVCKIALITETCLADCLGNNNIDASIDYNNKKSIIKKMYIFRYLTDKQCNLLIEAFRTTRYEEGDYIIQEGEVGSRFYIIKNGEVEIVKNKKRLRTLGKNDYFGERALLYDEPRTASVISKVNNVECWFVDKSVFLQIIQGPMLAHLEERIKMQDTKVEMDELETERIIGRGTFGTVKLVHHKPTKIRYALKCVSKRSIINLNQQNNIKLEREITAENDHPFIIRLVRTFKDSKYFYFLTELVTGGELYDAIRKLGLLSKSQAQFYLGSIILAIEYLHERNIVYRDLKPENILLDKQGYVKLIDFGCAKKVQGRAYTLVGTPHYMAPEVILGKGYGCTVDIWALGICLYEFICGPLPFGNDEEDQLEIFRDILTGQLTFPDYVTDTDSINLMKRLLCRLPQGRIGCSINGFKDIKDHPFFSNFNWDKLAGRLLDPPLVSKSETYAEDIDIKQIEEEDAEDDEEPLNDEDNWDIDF
Description: Full-length PfPKG (PF3D7_1436600)^[19] and PvPI4Kβ (PVX_098050)^[20] recombinant proteins were expressed in E. coli and baculovirus-insect cell expression systems. The kinase domain of PfCLK3 (PF3D7_1114700, Gln317 to Ser694) was expressed in E. coli Rosetta™(DE3)pLysS cells (kind gift from Rafael M. Couñago, CQMED, University of Campinas). Briefly, the N-terminal His-tagged kinases were purified using immobilized metal affinity chromatography, followed by anion exchange chromatography in the case of PfPKG, and size exclusion chromatography. Dose-response kinase inhibition assays were carried out using the ADP-Glo kinase assay kit^[21], with 1 nM PfPKG, 10 μM ATP, 20 μM […]-NH2, 1% (v/v) DMSO and inhibitor in PKG assay buffer (25 mM HEPES pH 7.4, 0.1 mg/mL BSA, 0.01% (v/v) Triton-X 100, 20 mM MgCl2, 2 mM DTT, 10 μM cGMP); or 6 nM PvPI4Kβ, 10 μM ATP, 0.1 mg/ml L-alpha-phosphatidylinositol, 1% (v/v) DMSO and inhibitor in PI4Kβ assay buffer (25 mM HEPES pH 7.4, 100 mM NaCl, 3 mM MgCl2, 1 mM DTT, 0.025 mg/ml BSA, 0.2% (v/v) Triton-X-100); or 15 nM PfCLK3, 10 μM ATP, 20 μM myelin basic protein, 1% (v/v) DMSO and inhibitor in assay buffer (50 mM HEPES pH 7.4, 0.1 mg/mL BSA, 0.01% (v/v) Triton-X 100, 20 mM MgCl2, 2 mM DTT). […] Mean IC50 values were calculated from two independent experiments, each with technical duplicates.

[2] = tested on: synthetic β-hematin (βH) formation; assay: NP-40 mediated cell-free β-hematin inhibition assay; type: biochemical; details: cell-free NP-40, pH 4.8, 5 h
Procedure: The β-hematin inhibition assay, as described in^[30,31] was used to test the inhibitors for their ability to inhibit β-hematin formation. The test samples were prepared as 20 mM or 10 mM stock solutions in dimethyl sulfoxide (DMSO). Serial dilutions of each inhibitor (100 μL) were performed from column 12 to column 2 of a 96-well plate in triplicate, with column 1 serving as a negative control (0 μM test inhibitor). The samples were tested at a starting in-well concentration of 1000 μM (20 mM stock) or 500 μM (10 mM stock). An “NP-40 substitute” detergent was added (305.5 μM) to each well to mimic the lipophilic environment in which hemozoin formation occurs within the parasite’s digestive vacuole, in helping to mediate the formation of β-hematin. A 25 mM hematin stock was prepared by sonicating heme in DMSO and then suspending 178.8 μL of this in 1 M acetate buffer (20 mL, pH 4.8). Then, 100 μL of the hematin suspension was added to each well to a final well volume of 200 μL. The plate was then incubated for 5 hours at 37 °C. After incubation, 32 μL and 60 μL of 50% pyridine solution and acetone were added, respectively. The pyridine-ferrochrome method by^[31] was used for UV-vis analysis, with the heme-pyridine complex absorbance measured at 405 nm. Data were analysed using Microsoft Excel and GraphPad Prism v10.5 software.

[3] = tested on: PfNF54 male gamete formation (exflagellation); assay: P. falciparum Dual Gamete Formation Assay (PfDGFA), male; type: cell-based; details: Plasmodium falciparum
Procedure: (§1) The Pf DGFA^[8] was performed by incubating PfNF54 gametocytes with test molecules in 384-well plates for 48 h. Gametogenesis was triggered with the addition of xanthurenic acid and a decrease in temperature. Male and female gametes were identified through fluorescent microscopy and quantified from recorded data using a custom imaging algorithm and then compared to negative (DMSO) and positive (1 µM cabamiquine) controls. Percentage inhibition was calculated, and dose-response curves were constructed in GraphPad Prism v10.5 to calculate IC50 values.

PfNF54 female gametes = assay: P. falciparum Dual Gamete Formation Assay (PfDGFA), female; type: cell-based, Plasmodium falciparum
Procedure: as §1

[4] = multidrug-resistant K1, read-out: Pf K1 ABS IC50
[5] = 48 h, read-out: Pf DGFA IC50 Male
[6] = read-out: IC50 male gamete exflagellation
[7] = Plasmodium falciparum, 48 h, read-out: Pf DGFA IC50 Female

SMILES	IC50 ([1]; K1, read-out: Pf K1 ABS IC50)	IC50 (recombinant PfPKG)	IC50 [2]	IC50 [1, 4]	IC50 [3, 5]	IC50 [3, 6]	IC50 (PfNF54 female gametes; Plasmodium falciparum, 48 h; read-out: Pf DGFA IC50 Female)	IC50 (recombinant PfPKG; 10 µM ATP, read-out: IC50 PfPKG)	IC50 (PfNF54 female gametes; 48 h; read-out: Pf DGFA IC50 Female)	IC50 (PfNF54 female gametes; [7])
CCN1CCN(C(=O)Cc2ccc(Nc3ncc(F)c(Nc4ccc(C(=O)Nc5ccccc5Cl)cc4)n3)cc2)CC1 [AAi I, Aurora A Inhibitor I]	342 nM	1700 nM	< 20000 nM	–	–	–	–	–	–	–
O=C(Nc1c[nH]nc1-c1nc2ccc(CN3CCOCC3)cc2[nH]1)NC1CC1 [AT83, AT9283]	–	9300 nM	–	102 nM	800 nM	786 ± 16 nM	> 10000 nM	–	–	–
CCN(CCO)CCCOc1ccc2c(Nc3cc(CC(=O)Nc4cccc(F)c4)n[nH]3)ncnc2c1 [AZD-1152, AZD-1152-HQPA]	–	> 10000 nM	< 20000 nM	341 nM	–	–	–	–	–	–
O=C(Nc1cccc(Nc2nccc(Nc3cccc(C(F)(F)F)c3)n2)c1)C1CC1 [Aki III, Aurora kinase inhibitor III]	–	–	< 20000 nM	1380 nM	–	–	–	2700 nM	–	–
COc1cc(N2CCC(N3CCN(C)CC3)CC2)ccc1Nc1ncc(Cl)c(Nc2ccccc2S(=O)(=O)C(C)C)n1 [TAE684, NVP-TAE684]	–	2000 nM	41400 ± 2300 nM	–	120 nM	116 ± 17 nM	–	–	2260 nM	2300 ± 50 nM
COc1cc2c(Nc3ccc(NC(=O)c4ccccc4)cc3)ncnc2cc1OCCCN1CCOCC1 [ZM-39, ZM-447439]	–	> 10000 nM	< 20000 nM	277 nM	> 10000 nM	–	–	–	–	> 10000 nM
